Substitutions are numbered along the chain they refer to.
Assays:
Format in all cases: cell-based
GPR139 E105A3x29 = target: T1, GPR139 E105A3x29 (Homo sapiens, UniProt Q6DWJ6, E105A); assay: Fluo-4 Ca2+-assay, GPR139 mutant E105A
T1 construct: mGluR5 signal peptide (N); expressed in transfected cells; host or cells: HEK293
T1 sequence (Q6DWJ6 2-353 E105A limits assumed): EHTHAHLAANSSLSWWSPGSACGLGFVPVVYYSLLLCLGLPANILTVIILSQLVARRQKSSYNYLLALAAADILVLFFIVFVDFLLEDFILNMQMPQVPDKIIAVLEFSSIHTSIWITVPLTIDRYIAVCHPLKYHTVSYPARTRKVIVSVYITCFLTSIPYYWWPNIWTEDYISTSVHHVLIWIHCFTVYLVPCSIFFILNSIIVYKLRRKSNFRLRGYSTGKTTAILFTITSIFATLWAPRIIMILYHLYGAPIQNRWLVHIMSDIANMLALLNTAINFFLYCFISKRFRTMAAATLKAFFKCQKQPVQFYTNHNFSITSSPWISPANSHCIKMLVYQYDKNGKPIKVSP
Source text: (§1) To study the influence of specific amino acids in the predicted binding pocket on receptor function, the desired mutations were introduced into an N-terminally c-myc-tagged wild type human GPR139 (NM_001002911.3) in the pEGFP-N1 vector (BD Biosciences)[32], [33]. As previously described, these plasmids carry the signal peptide of mGluR5 to promote cell surface expression followed by a c-myc epitope to enable detection of total and surface expression by ELISA, followed by an engineered MluI and NotI site for easy insertion of the receptor of interest. Furthermore, the start-codon in the GPR139 sequence was deleted to ensure c-myc-tagging. […]
(§2) The Ca^2+ measurements were preformed using the Fluo-4 NW Calcium Assay Kit (Invitrogen, Molecular Probes, F36206) as previously described. […] Intracellular calcium changes were recorded as indicated on either a NOVOstar (BMG Labtech) at 37 °C with an excitation filter of 485 nm and an emission filters 520 nm or a FlexStation 3 Benchtop Multi-Mode Microplate Reader (Molecular Devices) at 37 °C with an excitation wavelength of 485 nm and emission of 525 nm.
(§3) All pharmacological data have been analyzed by using Prism 6.0 (GraphPad Software Inc., San Diego). […] Changes in potency (pEC50) and span of myc-GPR139(WT) in comparison to untagged GPR139(WT) was statistically analyzed with a paired t-test and significance was accepted at p < 0.05. […]

GPR139 H264A7x31 = target: T2, GPR139 H264A7x31 (Homo sapiens, UniProt Q6DWJ6, H264A); assay: Fluo-4 Ca2+-assay, GPR139 mutant H264A
T2 construct: mGluR5 signal peptide (N); expressed in transfected cells; host or cells: HEK293
T2 sequence (Q6DWJ6 2-353 H264A limits assumed): T1 sequence (Q6DWJ6 2-353 E105A limits assumed) with A104E, H263A
Source text: as §1, §2, §3

GPR139 E108Q3x32 = target: T3, GPR139 E108Q3x32 (Homo sapiens, UniProt Q6DWJ6, E108Q); assay: Fluo-4 Ca2+-assay, GPR139 mutant E108Q
T3 construct: mGluR5 signal peptide (N); expressed in transfected cells; host or cells: HEK293
T3 sequence (Q6DWJ6 2-353 E108Q limits assumed): T1 sequence (Q6DWJ6 2-353 E105A limits assumed) with A104E, E107Q
Source text: To study the influence of specific amino acids in the predicted binding pocket on receptor function, the desired mutations were introduced into an N-terminally c-myc-tagged wild type human GPR139 (NM_001002911.3) in the pEGFP-N1 vector (BD Biosciences)[32], [33]. As previously described, these plasmids carry the signal peptide of mGluR5 to promote cell surface expression followed by a c-myc epitope to enable detection of total and surface expression by ELISA, followed by an engineered MluI and NotI site for easy insertion of the receptor of interest. Furthermore, the start-codon in the GPR139 sequence was deleted to ensure c-myc-tagging. Mutagenesis was designed in Serial Cloner 2.6 (© Franck Perez [SerialBasics]) and carried out by GenScript (USA). All mutated residues are illustrated in Supplementary Fig. 1b. An untagged GPR139(WT) in pEGFP-N1 was also generated to ensure that the c-myc-tag had no influence on GPR139(WT) function.
All GPR139 mutants were transfected into HEK293 cells. The HEK293 cells were grown in Dulbecco’s modified Eagle’s medium (DMEM) (Gibco, 41965) supplemented with 10% dialyzed fetal bovine serum (Gibco, 26400, United States origin), 100 units/mL penicillin and 100 μg/mL streptomycin (Gibco, 15140). HEK293 cells were reverse transfected using Lipofectamine2000 (Invitrogen). […]
as §2, §3

EC50 (GPR139 E105A3x29; E105A mutant): 0.129 µM
Emax (GPR139 E105A3x29; E105A, normalized to buffer (0%) and 8 µM 1a (100%)): 288 ± 27%
EC50 (GPR139 H264A7x31; H264A mutant): 0.251 µM
Emax (GPR139 H264A7x31; H264A, normalized to buffer (0%) and 8 µM 1a (100%)): 148 ± 15%
EC50 (GPR139 E108Q3x32; E108Q mutant): 1.51 µM
potency reduction (GPR139 E108Q3x32; E108Q mutant versus WT): 6 fold
Emax (GPR139 E108Q3x32; E108Q, normalized to buffer (0%) and 8 µM 1a (100%)): 217 ± 21%
SMILES: COc1cc(OC)cc(C(=O)NNC(=O)Nc2cccc3ccccc23)c1 [Compound 1a]

Source: paper PMC5430874 (Scientific Reports, 2017)
